# Values joined by “and” are separate entries in the source; they are usually repeats but may differ in a detail not shown here. Equal entries are not always repeated.
# How the values were obtained:
# [1] = target: PRPK (Homo sapiens (Human), UniProt Q96S44)
# Procedure: (§1) The cells were harvested and lysed. The lysates were directly labeled with an ATP-biotin probe. Bound kinases were identified and quantitated by ACTIVX as described in Patricelli et al., Biochemistry, 2007, 46(2): 350-358. The compounds were tested in duplicates against duplicate or quadruplicate control samples.
# [2] = target: PCTAIRE1 (Homo sapiens (Human), UniProt Q00536)
# Procedure: as §1
# [3] = target: MAPKAPK3 (Homo sapiens (Human), UniProt Q16644)
# Procedure: as §1
# [4] = target: PRP4 (Homo sapiens (Human), UniProt Q13523)
# Procedure: as §1
# [5] = target: PCTAIRE2 (Homo sapiens (Human), UniProt Q00537)
# Procedure: as §1
# [6] = target: SRPK1 (Homo sapiens (Human), UniProt Q96SB4); assay: KINATIV assay; assay type: cell-based; conditions: 1 μM, 90 minutes, BCWM.1 cells
# Procedure: as §1
# [7] = target: ITPK1 (Homo sapiens (Human), UniProt Q13572); assay: KINATIV assay; assay type: cell-based; conditions: 1 μM, 90 minutes, BCWM.1 cells
# Procedure: as §1
# [8] = target: LCK (Homo sapiens (Human), UniProt P06239); assay: KINATIV assay; assay type: cell-based; conditions: 1 μM, 90 minutes, BCWM.1 cells
# Procedure: as §1
# [9] = test system: KSR1, KSR2; assay: KINATIV assay; assay type: cell-based; conditions: 1 μM, 90 minutes, BCWM.1 cells
# Procedure: as §1
# [10] = test system: TAO1, TAO3; assay: KINATIV assay; assay type: cell-based; conditions: 1 μM, 90 minutes, BCWM.1 cells
# Procedure: as §1
# [11] = target: eEF2K (Homo sapiens (Human), UniProt O00418); assay: KINATIV assay; assay type: cell-based; conditions: 1 μM, 90 minutes, BCWM.1 cells
# Procedure: as §1
# [12] = target: LKB1 (Homo sapiens (Human), UniProt Q15831); assay: KINATIV assay; assay type: cell-based; conditions: 1 μM, 90 minutes, BCWM.1 cells
# Procedure: as §1
# [13] = target: TAO2 (Homo sapiens (Human), UniProt Q9UL54); assay: KINATIV assay; assay type: cell-based; conditions: 1 μM, 90 minutes, BCWM.1 cells
# Procedure: as §1
# [14] = target: CK1g2 (Homo sapiens (Human), UniProt P78368); assay: KINATIV assay; assay type: cell-based; conditions: 1 μM, 90 minutes, BCWM.1 cells
# Procedure: as §1
# [15] = test system: Wnk1, Wnk2; assay: KINATIV assay; assay type: cell-based; conditions: 1 μM, 90 minutes, BCWM.1 cells
# Procedure: as §1
# [16] = target: LATS2 (Homo sapiens (Human), UniProt Q9NRM7); assay: KINATIV assay; assay type: cell-based; conditions: 1 μM, 90 minutes, BCWM.1 cells
# Procedure: as §1
# [17] = target: NEK1 (Homo sapiens (Human), UniProt Q96PY6); assay: KINATIV assay; assay type: cell-based; conditions: 1 μM, 90 minutes, BCWM.1 cells
# Procedure: as §1
# [18] = target: Erk1 (Homo sapiens (Human), UniProt P27361); assay: KINATIV assay; assay type: cell-based; conditions: 1 μM, 90 minutes, BCWM.1 cells
# Procedure: as §1
# [19] = target: AurB (Homo sapiens (Human), UniProt Q96GD4); assay: KINATIV assay; assay type: cell-based; conditions: 1 μM, 90 minutes, BCWM.1 cells
# Procedure: as §1
# [20] = target: MLKL (Homo sapiens (Human), UniProt Q8NB16); assay: KINATIV assay; assay type: cell-based; conditions: 1 μM, 90 minutes, BCWM.1 cells
# Procedure: as §1
# [21] = test system: MARK1, MARK2; assay: KINATIV assay; assay type: cell-based; conditions: 1 μM, 90 minutes, BCWM.1 cells
# Procedure: as §1
# [22] = target: GCN2 (Homo sapiens (Human), UniProt Q9P2K8); assay: KINATIV assay; assay type: cell-based; conditions: 1 μM, 90 minutes, BCWM.1 cells
# Procedure: as §1
# [23] = target: CDK6 (Homo sapiens (Human), UniProt Q00534); assay: KINATIV assay; assay type: cell-based; conditions: 1 μM, 90 minutes, BCWM.1 cells
# Procedure: as §1
# [24] = test system: MYO3A, MYO3B; assay: KINATIV assay; assay type: cell-based; conditions: 1 μM, 90 minutes, BCWM.1 cells
# Procedure: as §1
# [25] = target: CaMK4 (Homo sapiens (Human), UniProt Q16566); assay: KINATIV assay; assay type: cell-based; conditions: 1 μM, 90 minutes, BCWM.1 cells
# Procedure: as §1
# [26] = target: TYK2 domain2 (Homo sapiens (Human), UniProt P29597); assay: KINATIV assay; assay type: cell-based; conditions: 1 μM, 90 minutes, BCWM.1 cells
# Procedure: as §1
# [27] = test system: Wnk1, Wnk2, Wnk4; assay: KINATIV assay; assay type: cell-based; conditions: 1 μM, 90 minutes, BCWM.1 cells
# Procedure: as §1
# [28] = target: TBK1 (Homo sapiens (Human), UniProt Q9UHD2); assay: KINATIV assay; assay type: cell-based; conditions: 1 μM, 90 minutes, BCWM.1 cells
# Procedure: as §1
# [29] = target: CK2a1 (Homo sapiens (Human), UniProt P68400); assay: KINATIV assay; assay type: cell-based; conditions: 1 μM, 90 minutes, BCWM.1 cells
# Procedure: as §1
# [30] = target: MSK1 domain1 (Homo sapiens (Human), UniProt O75582); assay: KINATIV assay; assay type: cell-based; conditions: 1 μM, 90 minutes, BCWM.1 cells
# Procedure: as §1
# [31] = test system: PITSLRE; assay: KINATIV assay; assay type: cell-based; conditions: 1 μM, 90 minutes, BCWM.1 cells
# Procedure: as §1
# [32] = target: PHKg2 (Homo sapiens (Human), UniProt P15735); assay: KINATIV assay; assay type: cell-based; conditions: 1 μM, 90 minutes, BCWM.1 cells
# Procedure: as §1
# [33] = target: MSK2 domain1 (Homo sapiens (Human), UniProt O75676); assay: KINATIV assay; assay type: cell-based; conditions: 1 μM, 90 minutes, BCWM.1 cells
# Procedure: as §1
# [34] = test system: CaMK2a, CaMK2b, CaMK2d, CaMK2g; assay: KINATIV assay; assay type: cell-based; conditions: 1 μM, 90 minutes, BCWM.1 cells
# Procedure: as §1
# [35] = target: TEC (Homo sapiens (Human), UniProt P42680); assay: KINATIV assay; assay type: cell-based; conditions: 1 μM, 90 minutes, BCWM.1 cells
# Procedure: as §1
# [36] = target: ULK1 (Homo sapiens (Human), UniProt O75385); assay: KINATIV assay; assay type: cell-based; conditions: 1 μM, 90 minutes, BCWM.1 cells
# Procedure: as §1
# [37] = target: CaMK2g (Homo sapiens (Human), UniProt Q13555); assay: KINATIV assay; assay type: cell-based; conditions: 1 μM, 90 minutes, BCWM.1 cells
# Procedure: as §1
# [38] = target: PIP4K2C (Homo sapiens (Human), UniProt Q8TBX8); assay: KINATIV assay; assay type: cell-based; conditions: 1 μM, 90 minutes, BCWM.1 cells
# Procedure: as §1
# [39] = test system: PCTAIRE1, PCTAIRE3; assay: KINATIV assay; assay type: cell-based; conditions: 1 μM, 90 minutes, BCWM.1 cells
# Excerpt: (§2) The cells were harvested and lysed.
# [40] = test system: PCTAIRE2, PCTAIRE3; assay: KINATIV assay; assay type: cell-based; conditions: 1 μM, 90 minutes, BCWM.1 cells
# Excerpt: as §2
# PIP4K2C, sequence (Q8TBX8 whole entry): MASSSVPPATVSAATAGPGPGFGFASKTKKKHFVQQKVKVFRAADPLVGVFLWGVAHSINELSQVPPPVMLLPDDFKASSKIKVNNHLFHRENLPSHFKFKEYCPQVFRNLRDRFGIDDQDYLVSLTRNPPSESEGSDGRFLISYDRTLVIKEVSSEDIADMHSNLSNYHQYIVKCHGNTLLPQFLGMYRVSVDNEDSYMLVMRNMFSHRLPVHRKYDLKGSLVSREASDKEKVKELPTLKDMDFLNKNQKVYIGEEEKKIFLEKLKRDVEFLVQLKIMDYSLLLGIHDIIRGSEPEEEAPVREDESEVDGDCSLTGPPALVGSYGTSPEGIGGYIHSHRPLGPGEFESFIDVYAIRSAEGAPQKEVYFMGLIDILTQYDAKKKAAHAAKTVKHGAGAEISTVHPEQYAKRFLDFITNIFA
# GCN2, sequence (Q9P2K8 whole entry): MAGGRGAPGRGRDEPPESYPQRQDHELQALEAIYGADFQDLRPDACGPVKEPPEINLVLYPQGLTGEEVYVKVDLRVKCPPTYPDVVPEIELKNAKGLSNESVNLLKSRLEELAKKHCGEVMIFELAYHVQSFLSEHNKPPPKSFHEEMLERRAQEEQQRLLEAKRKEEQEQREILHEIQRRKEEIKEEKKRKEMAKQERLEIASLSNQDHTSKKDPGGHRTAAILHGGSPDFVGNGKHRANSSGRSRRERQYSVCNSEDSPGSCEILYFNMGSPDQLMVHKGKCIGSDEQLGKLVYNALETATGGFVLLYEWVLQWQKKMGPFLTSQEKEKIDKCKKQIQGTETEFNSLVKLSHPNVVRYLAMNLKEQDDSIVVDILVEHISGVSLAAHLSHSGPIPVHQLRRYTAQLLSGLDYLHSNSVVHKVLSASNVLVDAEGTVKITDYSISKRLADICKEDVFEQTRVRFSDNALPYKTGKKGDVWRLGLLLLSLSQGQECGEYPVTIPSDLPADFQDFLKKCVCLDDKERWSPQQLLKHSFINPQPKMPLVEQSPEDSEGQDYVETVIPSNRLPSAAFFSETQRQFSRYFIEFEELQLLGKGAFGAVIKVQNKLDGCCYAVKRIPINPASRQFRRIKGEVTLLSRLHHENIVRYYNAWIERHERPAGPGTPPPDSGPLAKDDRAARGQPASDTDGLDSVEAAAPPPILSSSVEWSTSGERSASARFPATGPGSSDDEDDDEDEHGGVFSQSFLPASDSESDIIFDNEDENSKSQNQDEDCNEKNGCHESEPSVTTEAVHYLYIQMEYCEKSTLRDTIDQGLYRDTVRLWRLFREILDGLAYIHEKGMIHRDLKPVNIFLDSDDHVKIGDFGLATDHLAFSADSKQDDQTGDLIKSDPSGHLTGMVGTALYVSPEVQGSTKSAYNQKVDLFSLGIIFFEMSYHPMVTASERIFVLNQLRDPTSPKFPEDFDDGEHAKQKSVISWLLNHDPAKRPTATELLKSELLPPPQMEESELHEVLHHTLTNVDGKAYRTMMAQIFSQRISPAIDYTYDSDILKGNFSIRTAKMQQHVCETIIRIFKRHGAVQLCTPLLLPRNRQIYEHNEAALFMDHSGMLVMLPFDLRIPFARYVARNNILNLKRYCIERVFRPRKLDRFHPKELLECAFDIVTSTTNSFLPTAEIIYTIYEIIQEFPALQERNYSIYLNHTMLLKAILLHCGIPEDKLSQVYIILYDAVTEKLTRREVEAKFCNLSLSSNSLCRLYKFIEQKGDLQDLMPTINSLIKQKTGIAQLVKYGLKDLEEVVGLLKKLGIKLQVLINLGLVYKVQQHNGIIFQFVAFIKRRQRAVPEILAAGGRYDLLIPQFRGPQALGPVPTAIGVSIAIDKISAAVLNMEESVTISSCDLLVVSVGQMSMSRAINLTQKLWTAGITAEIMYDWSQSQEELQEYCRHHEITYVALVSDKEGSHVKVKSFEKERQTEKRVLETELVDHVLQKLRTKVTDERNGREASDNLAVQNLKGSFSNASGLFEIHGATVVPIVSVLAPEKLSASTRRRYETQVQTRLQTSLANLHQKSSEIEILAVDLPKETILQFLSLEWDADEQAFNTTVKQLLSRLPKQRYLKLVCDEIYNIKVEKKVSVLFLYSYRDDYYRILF
# TEC, sequence (P42680 whole entry): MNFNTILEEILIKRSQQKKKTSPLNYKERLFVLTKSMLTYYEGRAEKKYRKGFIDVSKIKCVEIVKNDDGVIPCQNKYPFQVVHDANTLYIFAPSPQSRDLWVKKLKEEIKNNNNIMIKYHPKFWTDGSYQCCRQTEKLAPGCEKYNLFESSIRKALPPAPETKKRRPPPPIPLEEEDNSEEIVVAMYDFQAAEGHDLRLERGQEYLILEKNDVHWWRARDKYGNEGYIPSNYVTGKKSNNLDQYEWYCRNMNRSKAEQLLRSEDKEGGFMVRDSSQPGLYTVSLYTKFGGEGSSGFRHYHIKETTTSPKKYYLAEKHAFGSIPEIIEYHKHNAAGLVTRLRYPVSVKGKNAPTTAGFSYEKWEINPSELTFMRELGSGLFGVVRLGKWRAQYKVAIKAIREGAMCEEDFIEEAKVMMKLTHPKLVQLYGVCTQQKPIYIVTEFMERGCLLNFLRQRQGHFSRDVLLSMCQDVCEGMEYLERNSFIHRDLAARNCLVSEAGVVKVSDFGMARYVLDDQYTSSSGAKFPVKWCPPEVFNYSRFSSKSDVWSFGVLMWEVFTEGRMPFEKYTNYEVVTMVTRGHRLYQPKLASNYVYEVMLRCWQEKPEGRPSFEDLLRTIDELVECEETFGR
# eEF2K, sequence (O00418 whole entry): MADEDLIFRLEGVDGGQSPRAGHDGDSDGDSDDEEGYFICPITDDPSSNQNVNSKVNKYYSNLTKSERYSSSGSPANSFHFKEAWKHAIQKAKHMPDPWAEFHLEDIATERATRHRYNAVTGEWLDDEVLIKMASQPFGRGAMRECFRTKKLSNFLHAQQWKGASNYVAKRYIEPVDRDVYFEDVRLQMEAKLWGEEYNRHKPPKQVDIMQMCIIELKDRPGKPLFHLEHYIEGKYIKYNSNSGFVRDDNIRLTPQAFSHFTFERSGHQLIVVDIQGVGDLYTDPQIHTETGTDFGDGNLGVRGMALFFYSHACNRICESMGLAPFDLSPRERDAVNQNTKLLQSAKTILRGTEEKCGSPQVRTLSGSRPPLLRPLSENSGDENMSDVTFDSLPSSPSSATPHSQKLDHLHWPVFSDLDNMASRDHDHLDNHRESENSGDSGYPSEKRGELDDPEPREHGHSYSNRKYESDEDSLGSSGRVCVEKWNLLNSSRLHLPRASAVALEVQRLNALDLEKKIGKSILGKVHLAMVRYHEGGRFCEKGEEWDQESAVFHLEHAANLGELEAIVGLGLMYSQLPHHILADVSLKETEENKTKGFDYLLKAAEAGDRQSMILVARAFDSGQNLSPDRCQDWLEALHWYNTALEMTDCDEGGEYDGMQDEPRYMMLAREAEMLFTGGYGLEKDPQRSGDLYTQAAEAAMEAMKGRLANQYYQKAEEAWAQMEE
# ITPK1, sequence (Q13572 whole entry): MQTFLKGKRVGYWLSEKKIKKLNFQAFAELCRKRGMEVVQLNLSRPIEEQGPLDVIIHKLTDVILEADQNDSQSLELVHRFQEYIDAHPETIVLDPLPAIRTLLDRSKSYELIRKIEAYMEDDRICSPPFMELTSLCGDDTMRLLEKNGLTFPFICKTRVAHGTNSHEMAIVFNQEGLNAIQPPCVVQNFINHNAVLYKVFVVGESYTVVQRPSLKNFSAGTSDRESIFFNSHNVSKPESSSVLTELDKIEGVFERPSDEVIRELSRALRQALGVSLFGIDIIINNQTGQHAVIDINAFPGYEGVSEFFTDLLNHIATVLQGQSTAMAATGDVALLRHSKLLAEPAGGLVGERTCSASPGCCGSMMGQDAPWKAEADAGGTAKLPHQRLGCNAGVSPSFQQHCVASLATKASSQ
# CaMK2g, sequence (Q13555 whole entry): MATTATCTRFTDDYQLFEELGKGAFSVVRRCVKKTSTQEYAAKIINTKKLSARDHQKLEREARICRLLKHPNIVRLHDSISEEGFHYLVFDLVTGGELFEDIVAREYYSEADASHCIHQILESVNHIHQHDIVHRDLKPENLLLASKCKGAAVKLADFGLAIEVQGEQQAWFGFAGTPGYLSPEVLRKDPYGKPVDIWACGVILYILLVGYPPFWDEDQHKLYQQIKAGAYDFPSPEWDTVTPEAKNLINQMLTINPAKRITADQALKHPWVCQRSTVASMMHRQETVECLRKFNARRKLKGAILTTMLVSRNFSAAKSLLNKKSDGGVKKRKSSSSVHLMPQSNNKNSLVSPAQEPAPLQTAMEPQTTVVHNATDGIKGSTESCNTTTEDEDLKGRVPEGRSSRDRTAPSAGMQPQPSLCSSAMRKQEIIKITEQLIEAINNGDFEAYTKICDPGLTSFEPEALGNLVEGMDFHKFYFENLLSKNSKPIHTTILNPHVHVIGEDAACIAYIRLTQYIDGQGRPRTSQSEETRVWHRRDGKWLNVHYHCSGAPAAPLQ
# CK2a1, sequence (P68400 whole entry): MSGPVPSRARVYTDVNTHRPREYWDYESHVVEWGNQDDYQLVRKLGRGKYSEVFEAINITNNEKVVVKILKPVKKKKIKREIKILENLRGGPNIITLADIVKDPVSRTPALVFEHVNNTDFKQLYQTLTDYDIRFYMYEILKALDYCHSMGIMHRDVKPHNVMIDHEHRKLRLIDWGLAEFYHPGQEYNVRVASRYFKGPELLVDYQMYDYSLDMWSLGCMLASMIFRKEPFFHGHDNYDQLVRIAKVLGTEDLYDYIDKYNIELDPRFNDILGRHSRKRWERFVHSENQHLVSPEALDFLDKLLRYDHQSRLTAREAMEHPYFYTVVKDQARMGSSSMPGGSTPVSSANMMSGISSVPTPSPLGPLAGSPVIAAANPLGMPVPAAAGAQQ
# PRPK, sequence (Q96S44 whole entry, looked up): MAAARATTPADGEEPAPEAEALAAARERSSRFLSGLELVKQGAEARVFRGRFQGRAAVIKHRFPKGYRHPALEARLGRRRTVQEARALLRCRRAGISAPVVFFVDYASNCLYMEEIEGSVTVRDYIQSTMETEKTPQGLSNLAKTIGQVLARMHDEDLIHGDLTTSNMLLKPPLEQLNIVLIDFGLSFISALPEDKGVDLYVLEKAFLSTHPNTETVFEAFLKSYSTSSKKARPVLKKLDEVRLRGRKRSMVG
smiles,measurement,setting,value
C=CC(=O)N1CCC(CNc2nccc(Nc3ncc(C(=O)Nc4c(C)cccc4C)s3)n2)C1 (racemic) [Example I-8],% change of MS signal compared to control sample,[1],3.7%
same,% change of MS signal compared to control sample,[2],32.9%
same,% change of MS signal compared to control sample,[3],0.5%
same,% change of MS signal compared to control sample,[4],−10.7%
same,% change of MS signal compared to control sample,[5],8.5%
same,% change of MS signal compared to control sample,[6],−19.5%
same,% change of MS signal compared to control sample,[7],−16.4%
same,% change of MS signal compared to control sample,[8],94.8%
same,% change of MS signal compared to control sample,[9],−8.8%
same,% change of MS signal compared to control sample,[10],−8.7%
same,% change of MS signal compared to control sample,[11],−1.5%
same,% change of MS signal compared to control sample,[12],−1.8%
same,% change of MS signal compared to control sample,[13],−4.9%
same,% change of MS signal compared to control sample,[14],−6.1%
same,% change of MS signal compared to control sample,[15],−16.4%
same,% change of MS signal compared to control sample,[16],10.6%
same,% change of MS signal compared to control sample,[17],12.8%
same,% change of MS signal compared to control sample,[18],−19.7%
same,% change of MS signal compared to control sample,[19],−14.3%
same,% change of MS signal compared to control sample,[20],−17.5%
same,% change of MS signal compared to control sample,[21],14.6%
same,% change of MS signal compared to control sample,[22],−20.3% and −13.6%
same,% change of MS signal compared to control sample,[23],4.5%
same,% change of MS signal compared to control sample,[24],23.1%
same,% change of MS signal compared to control sample,[25],−26.3%
same,% change of MS signal compared to control sample,[26],−44.6%
same,% change of MS signal compared to control sample,[27],−16.3%
same,% change of MS signal compared to control sample,[28],−2.9%
same,% change of MS signal compared to control sample,[29],13.9%
same,% change of MS signal compared to control sample,[30],−45.5%
same,% change of MS signal compared to control sample,[31],−16.1%
same,% change of MS signal compared to control sample,[32],6.4%
same,% change of MS signal compared to control sample,[33],−47.7%
same,% change of MS signal compared to control sample,[34],10.4%
same,% change of MS signal compared to control sample,[35],79.5% and 71.1%
same,% change of MS signal compared to control sample,[36],16.1%
same,% change of MS signal compared to control sample,[37],−9.4%
same,% change of MS signal compared to control sample,[38],97.6% and 85.7%
same,% change of MS signal compared to control sample,[39],19.8%
same,% change of MS signal compared to control sample,[40],28.8%
